From PubChem BioAssay AID1259407 (Chemical Carcinogenesis Research Information System (CCRIS), 2018)
The source made the active and inactive calls. No rule for the calls is given here.

System: CCRIS mutagenicity, Ames/micronucleus/aberration tests
Experiment: CCRIS mutagenicity studies
[1] = Test System: AMES SALMONELLA TYPHIMURIUM, Strain/Indicator: TA100, Metabolic Activation: NONE, Method: STANDARD PLATE

## O=CC(O)C(O)C(O)CO (stereo not drawn)
Test System: AMES SALMONELLA TYPHIMURIUM, Strain/Indicator: TA98, Metabolic Activation: NONE, Method: STANDARD PLATE
  mutagenic call: inactive; negative
Test System: AMES SALMONELLA TYPHIMURIUM, Strain/Indicator: TA98, Metabolic Activation: RAT, LIVER, S-9, AROCLOR 1254, Method: STANDARD PLATE
  mutagenic call: inactive; negative
[1]
  mutagenic call: inactive; negative
Test System: AMES SALMONELLA TYPHIMURIUM, Strain/Indicator: TA100, Metabolic Activation: RAT, LIVER, S-9, AROCLOR 1254, Method: STANDARD PLATE
  mutagenic call: inactive; negative
Test System: AMES SALMONELLA TYPHIMURIUM, Strain/Indicator: TA1535, Metabolic Activation: NONE, Method: STANDARD PLATE
  mutagenic call: inactive; negative
Test System: AMES SALMONELLA TYPHIMURIUM, Strain/Indicator: TA1535, Metabolic Activation: RAT, LIVER, S-9, AROCLOR 1254, Method: STANDARD PLATE
  mutagenic call: inactive; negative
Test System: AMES SALMONELLA TYPHIMURIUM, Strain/Indicator: TA1537, Metabolic Activation: NONE, Method: STANDARD PLATE
  mutagenic call: inactive; negative
Test System: AMES SALMONELLA TYPHIMURIUM, Strain/Indicator: TA1537, Metabolic Activation: RAT, LIVER, S-9, AROCLOR 1254, Method: STANDARD PLATE
  mutagenic call: inactive; negative
Test System: AMES SALMONELLA TYPHIMURIUM, Strain/Indicator: TA1538, Metabolic Activation: NONE, Method: STANDARD PLATE
  mutagenic call: inactive; negative
Test System: AMES SALMONELLA TYPHIMURIUM, Strain/Indicator: TA1538, Metabolic Activation: RAT, LIVER, S-9, AROCLOR 1254, Method: STANDARD PLATE
  mutagenic call: inactive; negative
Test System: E. COLI, Strain/Indicator: WP2, Metabolic Activation: NONE, Method: STANDARD PLATE
  mutagenic call: inactive; negative
Test System: E. COLI, Strain/Indicator: WP2, Metabolic Activation: RAT, LIVER, S-9, AROCLOR 1254, Method: STANDARD PLATE
  mutagenic call: inactive; negative

## O=C(O)c1cn(C2CC2)c2cc(N3CCNCC3)c(F)cc2c1=O
End Point: In vitro micronucleus, Test System: WTK-1 human lymphoma cells, Metabolic Activation: None
  mutagenic call: inactive; negative
Test System: AMES SALMONELLA TYPHIMURIUM, Strain/Indicator: HISC3076, Metabolic Activation: NONE, Method: STANDARD PLATE
  mutagenic call: inactive; negative
Test System: AMES SALMONELLA TYPHIMURIUM, Strain/Indicator: HISD3052, Metabolic Activation: NONE, Method: STANDARD PLATE
  mutagenic call: active; positive
Test System: AMES SALMONELLA TYPHIMURIUM, Strain/Indicator: HISG428, Metabolic Activation: NONE, Method: STANDARD PLATE
  mutagenic call: inactive; negative
Test System: AMES SALMONELLA TYPHIMURIUM, Strain/Indicator: TA92, Metabolic Activation: NONE, Method: STANDARD PLATE
  mutagenic call: active; positive
Test System: AMES SALMONELLA TYPHIMURIUM, Strain/Indicator: TA94, Metabolic Activation: NONE, Method: STANDARD PLATE
  mutagenic call: active; positive
Test System: AMES SALMONELLA TYPHIMURIUM, Strain/Indicator: TA102, Metabolic Activation: NONE, Method: STANDARD PLATE
  mutagenic call: active; positive
Test System: AMES SALMONELLA TYPHIMURIUM, Strain/Indicator: TA103, Metabolic Activation: NONE, Method: STANDARD PLATE
  mutagenic call: active; positive
Test System: AMES SALMONELLA TYPHIMURIUM, Strain/Indicator: TA104, Metabolic Activation: NONE, Method: STANDARD PLATE
  mutagenic call: inactive; negative
Test System: AMES SALMONELLA TYPHIMURIUM, Strain/Indicator: TA2425, Metabolic Activation: NONE, Method: STANDARD PLATE
  mutagenic call: active; positive
Test System: AMES SALMONELLA TYPHIMURIUM, Strain/Indicator: TA2638, Metabolic Activation: NONE, Method: STANDARD PLATE
  mutagenic call: active; positive
Test System: AMES SALMONELLA TYPHIMURIUM, Strain/Indicator: TA2661, Metabolic Activation: NONE, Method: STANDARD PLATE
  mutagenic call: inactive; negative
Test System: AMES SALMONELLA TYPHIMURIUM, Strain/Indicator: TA2662, Metabolic Activation: NONE, Method: STANDARD PLATE
  mutagenic call: active; positive
Test System: AMES SALMONELLA TYPHIMURIUM, Strain/Indicator: TA2678, Metabolic Activation: NONE, Method: STANDARD PLATE
  mutagenic call: inactive; negative
Test System: CHINESE HAMSTER V-79, Strain/Indicator: V-79 (HPRT)/6-THIOGUANINE, Metabolic Activation: NONE
  mutagenic call: active; positive
Test System: MOUSE LYMPHOMA, Strain/Indicator: L5178Y (TK+/TK-), Metabolic Activation: NONE, Method: FLUCTUATION TEST
  mutagenic call: active; positive

## O=[N+]([O-])C(Br)Br
Test System: Ames Salmonella typhimurium, Strain/Indicator: RSJ100, Metabolic Activation: None, Method: Standard plate
  mutagenic call: inactive; negative
Test System: Ames Salmonella typhimurium, Strain/Indicator: RSJ100, Metabolic Activation: Rat, Liver, S-9, Aroclor, Method: Standard plate
  mutagenic call: inactive; negative
Test System: Ames Salmonella typhimurium, Strain/Indicator: TA98, Metabolic Activation: None, Method: Standard plate
  mutagenic call: inactive; negative
Test System: Ames Salmonella typhimurium, Strain/Indicator: TA98, Metabolic Activation: Rat, Liver, S-9, Aroclor, Method: Standard plate
  mutagenic call: inactive; negative
Test System: Ames Salmonella typhimurium, Strain/Indicator: TA100, Metabolic Activation: None, Method: Standard plate
  mutagenic call: active; positive
Test System: Ames Salmonella typhimurium, Strain/Indicator: TA100, Metabolic Activation: Rat, Liver, S-9, Aroclor, Method: Standard plate
  mutagenic call: active; positive
Test System: Ames Salmonella typhimurium, Strain/Indicator: TA104, Metabolic Activation: None, Method: Standard plate
  mutagenic call: inactive; negative
Test System: Ames Salmonella typhimurium, Strain/Indicator: TA104, Metabolic Activation: Rat, Liver, S-9, Aroclor, Method: Standard plate
  mutagenic call: inactive; negative
Test System: Ames Salmonella typhimurium, Strain/Indicator: TPT100, Metabolic Activation: None, Method: Standard plate
  mutagenic call: inactive; negative

## Clc1ncnc2nc[nH]c12
[1]
  mutagenic call: active; positive

## N[C@@H](CCC(=O)NNc1ccc(CO)cc1)C(=O)O
Test System: AMES SALMONELLA TYPHIMURIUM, Strain/Indicator: TA97, Metabolic Activation: NONE
  mutagenic call: active; positive
Test System: AMES SALMONELLA TYPHIMURIUM, Strain/Indicator: TA98, Metabolic Activation: NONE
  mutagenic call: inactive; negative
Test System: AMES SALMONELLA TYPHIMURIUM, Strain/Indicator: TA100, Metabolic Activation: NONE
  mutagenic call: inactive; negative
Test System: AMES SALMONELLA TYPHIMURIUM, Strain/Indicator: TA102, Metabolic Activation: NONE
  mutagenic call: inactive; negative
Test System: AMES SALMONELLA TYPHIMURIUM, Strain/Indicator: TA104, Metabolic Activation: MUSHROOM TYROSINASE, Method: PREINCUBATION
  mutagenic call: inactive; negative
Test System: AMES SALMONELLA TYPHIMURIUM, Strain/Indicator: TA104, Metabolic Activation: NONE
  mutagenic call: active; positive
Test System: AMES SALMONELLA TYPHIMURIUM, Strain/Indicator: TA104, Metabolic Activation: NONE, Method: PREINCUBATION
  mutagenic call: inactive; negative
Test System: AMES SALMONELLA TYPHIMURIUM, Strain/Indicator: TA104, Metabolic Activation: RAT, KIDNEY, HOMOGENATE, REDUCED GLUTATHIONE, Method: PREINCUBATION
  mutagenic call: active; positive
Test System: AMES SALMONELLA TYPHIMURIUM, Strain/Indicator: TA104, Metabolic Activation: RAT, KIDNEY, HOMOGENATE, Method: PREINCUBATION
  mutagenic call: active; positive
Test System: AMES SALMONELLA TYPHIMURIUM, Strain/Indicator: TA104, Metabolic Activation: RAT, LIVER, CYTOSOL, AROCLOR 1254, NADPH, Method: PREINCUBATION
  mutagenic call: active; positive
Test System: AMES SALMONELLA TYPHIMURIUM, Strain/Indicator: TA104, Metabolic Activation: RAT, LIVER, CYTOSOLIC FRACTION, AROCLOR 1254 (10%)
  mutagenic call: active; positive
Test System: AMES SALMONELLA TYPHIMURIUM, Strain/Indicator: TA104, Metabolic Activation: RAT, LIVER, MICROSOMES, AROCLOR 1254, Method: PREINCUBATION
  mutagenic call: inactive; negative
Test System: AMES SALMONELLA TYPHIMURIUM, Strain/Indicator: TA104, Metabolic Activation: RAT, LIVER, MICROSOMES, AROCLOR 1254 AND RAT, KIDNEY, HOMOGENATE, Method: PREINCUBATION
  mutagenic call: active; positive
Test System: AMES SALMONELLA TYPHIMURIUM, Strain/Indicator: TA1535, Metabolic Activation: NONE
  mutagenic call: inactive; negative
Test System: AMES SALMONELLA TYPHIMURIUM, Strain/Indicator: TA1535, Metabolic Activation: NONE, Method: PREINCUBATION
  mutagenic call: inactive; negative
Test System: AMES SALMONELLA TYPHIMURIUM, Strain/Indicator: TA1535, Metabolic Activation: RAT, LIVER, S-9, AROCLOR 1254, Method: PREINCUBATION
  mutagenic call: inactive; negative
Test System: AMES SALMONELLA TYPHIMURIUM, Strain/Indicator: TA1537, Metabolic Activation: NONE
  mutagenic call: active; positive
Test System: AMES SALMONELLA TYPHIMURIUM, Strain/Indicator: TA1537, Metabolic Activation: NONE, Method: PREINCUBATION
  mutagenic call: inactive; negative
Test System: AMES SALMONELLA TYPHIMURIUM, Strain/Indicator: TA1537, Metabolic Activation: RAT, LIVER, S-9, AROCLOR 1254, Method: PREINCUBATION
  mutagenic call: inactive; negative
Test System: AMES SALMONELLA TYPHIMURIUM, Strain/Indicator: TA1538, Metabolic Activation: NONE
  mutagenic call: inactive; negative
